Assay results as given in patent US20060079534A1, “Cell division inhibitor and a production method thereof” (priority 2000, published 2006).
Converted amounts (≈) assume the structure as drawn.

Key:
pronuclear fusion = details: Kobayashi et al. 1989; cited from earlier work
[1] = system: cleavage division of Scaphechinus mirabilis; experiment: Inhibition test for cell division (cleavage division); format: in vivo; details: observed 4 hours after fertilization; * = no activity at the indicated concentration
Protocol: (§1) Physiological activity of each dehydrodiketopiperazine will be described below. Each dehydrodiketopiperazine was tested for its inhibitory activity against cleavage division of Hemicentrotus pulcherrimus, Scaphechinus mirabilis and Temnopleurus toreumaticus as a cell division inhibitory activity. The test was carried out as described in The Journal of Antibiotics, Vol. 52, p. 1017 (1999). However, stages at which the first cleavage division occurs vary among sea urchins, so that inhibition of the cleavage division was observed after 4 hours of fertilization in the tests using Hemicentrotus pulcherrimus and Scaphechinus mirabilis, and after one hour of fertilization in the test using Temnopleurus toreumaticus, respectively.

[2] = system: cleavage division of Hemicentrotus pulcherrimus; experiment: as above; format: in vivo; details: observed 4 hours after fertilization; * = no activity at the indicated concentration
Protocol: as §1

[3] = system: cleavage division of Temnopleurus toreumaticus; experiment: as above; format: in vivo; details: observed one hour after fertilization; * = no activity at the indicated concentration
Protocol: as §1

tumor = details: cited from earlier work
bacteria = details: Fukushima et al. 1973; cited from earlier work
[4] = system: dehydrogenase (cell-free extract); experiment: Amount of dehydrogenation of each substrate by enzyme (change in absorbance at 600 nm due to coenzyme); format: biochemical, Streptomyces albulus KO23; details: relative value of change in absorbance at 600 nm, CFL set to 100; substrate 0.5 mM, 37° C.
[5] = system: cleavage division of Hemicentrotus pulcherrimus, Scaphechinus mirabilis and Temnopleurus toreumaticus; experiment: Comparison of cell division inhibitory activity across the sea urchin tests; format: in vivo, sea urchins; details: ratio of MIC values
Protocol: as §1

[6] = system: sea urchin embryo division; details: Kanzaki et al. 1999; cited from earlier work
tubulin = details: cited from earlier work
[7] = system: cancer cell transplanted model animal; details: cited from earlier work

CC(C)/C=c1\[nH]c(=O)/c(=C/c2ccccc2)[nH]c1=O [albonoursin, 3-(Z)-benzylidene-6-(Z)isobutylidene-2,5-piperazine dione]
inhibition of pronuclear fusion (pronuclear fusion): acts to inhibit the pronuclear fusion
MIC Scaphechinus mirabilis [1]: >13* μg/ml
MIC Hemicentrotus pulcherrimus [2]: 6.3 µg/mL (≈ 24.6 µM)
MIC Temnopleurus toreumaticus [3]: >25* μg/ml
antitumor activity (tumor; Fukushima et al. 1973): has an antitumor activity
antibacterial activity (bacteria): antibacterial activity

C=CC(C)(C)c1[nH]cnc1C=C1NC(=O)C(Cc2ccccc2)NC1=O (single isomer, unassigned; (+)) [(+)-phenylahistin, 3-{[5-(1,1-dimethyl-2-propenyl)imidazole-4-yl]methylene}-6-benzylpiperazine-2,5-dione]
MIC Scaphechinus mirabilis [1]: >13* μg/ml
MIC Hemicentrotus pulcherrimus [2]: 13 µg/mL (≈ 37.1 µM)
MIC Temnopleurus toreumaticus [3]: 6.3 µg/mL (≈ 18 µM)

CSCCC1NC(=O)C(CCSC)NC1=O (centres unmarked) [CMM]
Amount of dehydrogenation [4]: 27

O=c1[nH]/c(=C\c2c[nH]cn2)c(=O)[nH]/c1=C\c1ccccc1 [(Z,Z)-tetradehydro-CFH, Z-tetradehydrocyclophenylalanylhistidyl]
MIC Scaphechinus mirabilis [1]: 1.6 µg/mL (≈ 5.71 µM)
MIC Hemicentrotus pulcherrimus [2]: 0.78 µg/mL (≈ 2.78 µM)
MIC Temnopleurus toreumaticus [3]: 1.6 µg/mL (≈ 5.71 µM)
inhibitory activity compared with CFH [5]: ≥ 15 fold

O=c1[nH]c(=Cc2ccccc2)c(=O)[nH]c1=Cc1ccccc1 [tetradehydrocyclo (Phe-Phe)]
sea urchin embryo division inhibitory activity [6]: exhibits sea urchin embryo division inhibitory activity

C=CC(C)(C)c1[nH]cnc1/C=c1\[nH]c(=O)/c(=C/c2ccccc2)[nH]c1=O [dehydrophenylahistin, (Z, Z)-dehydrophenylahistin]
MIC Scaphechinus mirabilis [1]: 0.0061 µg/mL (≈ 0.0175 µM)
MIC Hemicentrotus pulcherrimus [2]: 0.00038 µg/mL (≈ 0.00109 µM)
MIC Temnopleurus toreumaticus [3]: 0.0061 µg/mL (≈ 0.0175 µM)

C=CC(C)(C)c1[nH]cnc1C=C1NC(=O)C(Cc2ccccc2)NC1=O (single isomer, unassigned; (-)) [(−)-phenylahistin, 3-{[5-(1,1-dimethyl-2-propenyl)imidazole-4-yl]methylene}-6-benzylpiperazine-2,5-dione]
inhibition of the polymerization of tubulin (tubulin): inhibits the polymerization of tubulin
MIC Scaphechinus mirabilis [1]: 1.6 µg/mL (≈ 4.57 µM)
MIC Hemicentrotus pulcherrimus [2]: 0.39 µg/mL (≈ 1.11 µM)
MIC Temnopleurus toreumaticus [3]: 0.2 µg/mL (≈ 0.571 µM)
antitumor activity relative to (+)-phenylahistin (tumor; times stronger than (+)-phenylahistin, approx.): 30-100 times
antitumor effect [7]: a certain degree of antitumor activity

O=C(O)CC1NC(=O)C(CC(=O)O)NC1=O (centres unmarked) [CDD]
Amount of dehydrogenation [4]: 14

CC(C)CC1NC(=O)C(Cc2ccc(O)cc2)NC1=O (centres unmarked) [CLY]
Amount of dehydrogenation [4]: 14

O=C(O)CCC1NC(=O)C(CCC(=O)O)NC1=O (centres unmarked) [CEE]
Amount of dehydrogenation [4]: 14

CC(C)C[C@@H]1NC(=O)[C@H](Cc2ccccc2)NC1=O [CFL]
Amount of dehydrogenation [4]: 100

O=C1N[C@@H](Cc2c[nH]cn2)C(=O)N[C@H]1Cc1ccccc1 [CFH, cyclophenylalanylhistidyl]
Amount of dehydrogenation [4]: 44
MIC Scaphechinus mirabilis [1]: >25* μg/ml
MIC Hemicentrotus pulcherrimus [2]: >25* μg/ml
MIC Temnopleurus toreumaticus [3]: >25* μg/ml
